From the supplement of paper PMC6045584

Columns and labels:
Test in all cases: area under dose-response curve of surviving fraction (unscaled, Aref=0) (surviving fraction x log10(nM)); higher = more resistant
Conditions in all cases: exposure time: 5 days; dose range 0.5-1000 nM
[1] = compound: C=CCNC1=C2C[C@@H](C)C[C@H](OC)[C@H](O)[C@@H](C)/C=C(\C)[C@H](OC(N)=O)[C@@H](OC)/C=C\C=C(/C)C(=O)NC(=CC1=O)C2=O [17-AAG]
Procedure, shortened: (§1)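 Surviving fractions were fitted by 3-parameter logistic regression in the drc R package to give dose-response survival curves. They came from tumour cell lines treated for five days with eight inhibitor concentrations from 0.5 to 1000 nM and read by CellTiter-Glo luminescence against DMSO-only wells. The area under the curve is the unscaled activity area. It was calculated over log10 dose with Aref = 0.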

[2] = compound: CCN(CC)CCCCNc1ncc2cc(-c3cc(OC)cc(OC)c3)c(NC(=O)NC(C)(C)C)nc2n1
Procedure, shortened: as §1

[3] = compound: CC[C@@H](C(=O)[C@@H](C)[C@@H](O)[C@H](C)[C@@H]1O[C@@H]([C@@H](CC)C(=O)O)CC[C@@H]1C)[C@H]1O[C@]2(C=C[C@@H](O)[C@]3(CC[C@@](C)([C@H]4CC[C@](O)(CC)[C@H](C)O4)O3)O2)[C@H](C)C[C@@H]1C [SALINOMYCIN]
Procedure, shortened: as §1

[4] = compound: CN(C)CC[C@H](CSc1ccccc1)Nc1ccc(S(=O)(=O)NC(=O)c2ccc(N3CCN(Cc4ccccc4-c4ccc(Cl)cc4)CC3)cc2)cc1[N+](=O)[O-] [ABT-737]
Procedure, shortened: as §1

[5] = compound: CN1CC[C@H](c2c(O)cc(O)c3c(=O)cc(-c4ccccc4Cl)oc23)[C@H](O)C1 [FLAVOPIRIDOL]
Procedure, shortened: as §1

[6] = compound: COc1cc2c(cc1O)CC[C@@H]1[C@@H]2CC[C@]2(C)[C@@H](O)CC[C@@H]12 [2-METHOXYESTRADIOL]
Procedure, shortened: as §1

[7] = compound: COc1ccc(C2=N[C@@H](c3ccc(Cl)cc3)[C@@H](c3ccc(Cl)cc3)N2C(=O)N2CCNC(=O)C2)c(OC(C)C)c1 [NUTLIN3]
Procedure, shortened: as §1

[8] = compound: COc1cccc2c1C(=O)c1c(O)c3c(c(O)c1C2=O)C[C@@](O)(C(=O)CO)C[C@@H]3O[C@H]1C[C@H](N)[C@H](O)[C@H](C)O1 [DOXORUBICIN]
Procedure, shortened: as §1

[9] = compound: CS(=O)(=O)CCNCc1ccc(-c2ccc3ncnc(Nc4ccc(OCc5cccc(F)c5)c(Cl)c4)c3c2)o1 [LAPATINIB]
Procedure, shortened: as §1

[10] = compound: CS(=O)(=O)c1ccc(C(=O)Nc2ccc(Cl)c(-c3ccccn3)c2)c(Cl)c1 [VISMODEGIB]
Procedure, shortened: as §1

[11] = compound: Nc1ncn([C@H]2C[C@H](O)[C@@H](CO)O2)c(=O)n1 [DECITABINE]
Procedure, shortened: as §1

[12] = compound: O=c1[nH]cc(F)c(=O)[nH]1 [FLUOROURACIL]
Procedure, shortened: as §1

[13] = compound: Oc1ccc(/C=C/c2cc(O)cc(O)c2)cc1 [RESVERATROL]
Procedure, shortened: as §1

Test System | area under dose-response curve [1] | area under dose-response curve [2] | area under dose-response curve [3] | area under dose-response curve [4] | area under dose-response curve [5] | area under dose-response curve [6] | area under dose-response curve [7] | area under dose-response curve [8] | area under dose-response curve [9] | area under dose-response curve [10] | area under dose-response curve [11] | area under dose-response curve [12] | area under dose-response curve [13]
T47D BREAST | 2.74 | 3.36 | 3.3 | 3.61 | 2.51 | 3.15 | 3.35 | 2.13 | 3.39 | 3.3 | 3.53 | 3.16 | 3.51
CASKI CERVIX | 1.32 | 3.09 | 2.37 | 3.24 | 1.76 | 3.06 | 3.23 | 0.836 | 2.48 | 3.06 | 2.1 | 3.05 | 3.22
HU09 BONE | 1.08 | 3.06 | 2.91 | 3.04 | 2.06 | 3.01 | 3.4 | 1.38 | 3.23 | 3.11 | 3.33 | 3.06 | 3.57
SUM149 BREAST | 1.29 | – | 2.62 | 3.39 | 2.09 | 2.9 | 3.63 | 1.11 | 2.56 | 2.98 | 2.01 | 2.9 | 3.39
SYO1 SYNOVIAL | 1.74 | 2.51 | 2.04 | 3 | 1.9 | 2.75 | 2.9 | 0.851 | 3.2 | 3 | 2.46 | 2.82 | 3.23
DU4475 BREAST | 1.26 | 2.52 | 2.43 | 2.54 | 1.69 | 2.52 | 3.2 | 0.979 | 3.33 | 3.21 | 1.99 | 3.34 | 3.25
JIMT1 BREAST | 1.58 | 3.25 | 2.96 | 3.44 | 2.19 | 3.13 | 3.38 | 2.21 | 3.27 | 3 | 2.86 | 3.03 | 3.4
H23 LUNG | 1.66 | 3.28 | – | 3.5 | 2.33 | 3.11 | 3.42 | 1.79 | 2.77 | 3.43 | 2.74 | 3.28 | 3.42
CAL120 BREAST | 1.76 | 2.73 | 2.03 | 3.33 | 2.14 | 3 | 3.14 | 1.87 | 3.34 | 3.26 | 3.03 | 3.16 | 3.3
SKBR3 BREAST | 1.25 | 3.1 | 2.84 | 3.52 | 2.07 | 3.2 | 2.96 | 1.72 | 2.38 | 3.07 | 3.29 | 2.95 | 3.5
A549 LUNG | 1.64 | 3.22 | 3.11 | 3.54 | 2.34 | 3.25 | 3.26 | 2.25 | 3.47 | 3.34 | 3.29 | 3.27 | 3.51
SCC90 HEADNECK | 2.31 | 2.96 | 2.84 | 3.56 | 2.25 | 2.68 | 3.5 | 2.36 | 2.81 | 2.93 | 3.6 | 3.17 | –
MDAMB436 BREAST | 1.77 | 2.96 | 1.74 | 3.13 | 2.13 | 3.01 | 2.99 | 2.04 | 3.11 | 2.81 | 3.1 | 2.81 | 3.36
MHM BONE | 2.77 | 3.05 | 3.24 | 3.61 | 2.77 | 3.26 | 3.28 | 2.66 | 3.38 | 3.42 | 3.4 | 3.46 | 3.41
MCF7 BREAST | 1.92 | 2.89 | 2.78 | 3.27 | 2.18 | 2.89 | 2.87 | 1.99 | 3.11 | 2.99 | 2.83 | 2.99 | 3.21
CAL51 BREAST | 1.92 | 2.86 | 3.01 | 3.4 | 1.92 | 2.99 | 3.17 | 1.48 | 3.37 | 3.09 | 2.92 | 3.05 | 3.35
MDAMB134 BREAST | 1.91 | 2.92 | 3.52 | 3.13 | 2.96 | 2.73 | 3.16 | 2.35 | 3.79 | 2.56 | 3.67 | 2.74 | 3.44
C33A CERVIX | – | 2.88 | 2.96 | 3.38 | 2.27 | 2.91 | 3.13 | 1.46 | 2.92 | 3.15 | 3.03 | 3.66 | 3.17

Test System | area under dose-response curve [1] | area under dose-response curve [2] | area under dose-response curve [3] | area under dose-response curve [4] | area under dose-response curve [5] | area under dose-response curve [6] | area under dose-response curve [7] | area under dose-response curve [8] | area under dose-response curve [9] | area under dose-response curve [10] | area under dose-response curve [11] | area under dose-response curve [12] | area under dose-response curve [13]
HOS BONE | 2.31 | – | 2.44 | 3.45 | 2.29 | 3.21 | 3.43 | 1.25 | 3.45 | 3.34 | 3.22 | 3.19 | 3.43
HOSMNG BONE | 2.42 | 3.33 | 3.21 | 3.05 | 2.35 | 3.07 | 3.48 | 2.25 | 3.02 | 3.19 | 3.51 | 3.41 | 2.77
KPD BONE | 1.75 | 3.24 | 2.62 | 3.2 | 2.05 | 3.16 | 3.29 | 1.78 | 3.44 | 3.27 | 2.08 | 3.27 | 3.44
MDAMB361 BREAST | 1.34 | 2.94 | 2.72 | 2.84 | 2.59 | 2.61 | 2.83 | 2.58 | 2.68 | 2.31 | 3.03 | 2.28 | 2.99
SCC003 HEADNECK | 2.38 | 3.36 | 2.91 | 3.76 | 2.22 | – | 3.48 | 2.03 | 3.11 | 3.24 | 2.94 | 3.08 | 3.64
MFM223 BREAST | 1.07 | 2 | 2.35 | 4.23 | 2.3 | 3.08 | 3.57 | 2 | 3.48 | 3.12 | 3.65 | 2.92 | 3.94
HCC1395 BREAST | 3.19 | 2.85 | – | 3.99 | – | 3.84 | 3.79 | – | 3.36 | 2.48 | 4.02 | 3.24 | 3.66
HCC1806 BREAST | 0.894 | 3.58 | 2.77 | 3.72 | 2.06 | 3.46 | 3.55 | 1.3 | 3.15 | 3.23 | 1.27 | 3.09 | 3.7
PCI30 HEADNECK | 1.97 | 3.28 | 2.49 | 3.56 | 2.11 | 2.94 | 3.44 | 2.03 | 3.52 | 3.04 | 3.24 | 3.3 | 3.54
MG63 BONE | 2.62 | 2.88 | 2.67 | 3.59 | 2.39 | 3.27 | 3.4 | 1.9 | 3.5 | 3.19 | 1.88 | 3.26 | 3.52
COLO320DM LARGE INTESTINE | 2.98 | 3.53 | 2.89 | 3.69 | 2.06 | 2.88 | 4.13 | 3.07 | 3.66 | 3.45 | 3.27 | 2.87 | 3.54
HCC1954 BREAST | 0.46 | 3.28 | 2.46 | 3.03 | 1.99 | 2.85 | 3.64 | 1.78 | 2.76 | 2.26 | 4.03 | 2.96 | 3.7
HELA CERVIX | 2.37 | 3.33 | 3.17 | 3.64 | 2.54 | 3.11 | 3.38 | 1.69 | 3.7 | 3.49 | 3.41 | 3.55 | 3.64
CAL72 BONE | 2.63 | 2.46 | 3.12 | 3.52 | 2.13 | 3.18 | 3.61 | 1.9 | 3.63 | 3.17 | 3.26 | 3.25 | 3.49
LM7 BONE | 1.46 | 3.22 | 3.08 | 3.48 | 2.3 | 3.02 | 3.39 | 1.78 | 3.39 | 3.28 | 3.06 | 2.96 | 3.63
MDAMB231 BREAST | 2.14 | 3.28 | 2.97 | 3.28 | 2.26 | 3 | 3.31 | 2.1 | 3.27 | 3.04 | 3.17 | 3.13 | 3.26
HSSYII SYNOVIAL | 2.27 | 2.02 | 2.22 | 2.95 | 2.06 | 2.57 | 2.98 | 0.844 | 3.2 | 2.83 | 2.67 | 3.07 | 3.27
